# Values quoted from earlier work in patent EP2090292A1, “Means and methods for controlling commensales” (B.R.A.I.N. Biotechnology Research and Information Network AG, priority 2008, dated 2009).
# Entries after “also recorded” stand apart in the source; their conditions may differ.
# Tested on: Gram-positive and Gram-negative bacteria
# Conditions: prior art, Torres et al. (1998); biofilm not assayed
compound,measurement,value
"CC1OC(=O)C(C2OC2C)=CC1O (stereo not shown) [aspyrone, 6-Dihydro-5-hydroxy-6-methyl-3-(3-methyloxiranyl)-2H-pyran-2-one]",inhibitory activity against Gram-positive and Gram-negative bacteria,weak inhibitory activity; also recorded: weak to negligible activity
